Assay results taken from patent US7074422B2, “Fungicidal mixtures” (BASF Aktiengesellschaft, priority 2002, dated 2006).

Test system: Plasmopara viticola
Test: Activity against Peronospora of vines caused by Plasmopara viticola (persistence test on potted vines)
Format: in vivo
Details: individual active compound, vines "Müller-Thurgau", inoculated 3 days after spraying
Method: The active compounds were prepared separately or together as a stock solution comprising 0.25% of active compound in acetone or DMSO. 1% by weight of the emulsifier Uniperol® EM (wetting agent having emulsifying and dispersing action based on ethoxylated alkylphenols) was added, and the mixture was diluted with water to the desired concentration.
Evaluation is carried out by determining the infected leaf areas in percent. These percentages are converted into efficacies. The expected efficacies of the active compound mixtures are determined using Colby's formula [R. S. Colby, Weeds 15, 20-22 (1967)] and compared with the observed efficacies.
Colby's formula: E=x+y−x.y/100 • E expected efficacy, expressed in % of the untreated control, when using the mixture of the active compounds A and B at the concentrations a and b • x efficacy, expressed in % of the untreated control, when using active compound A at a concentration of a • y efficacy, expressed in % of the untreated control, when using active compound B at a concentration of b
The efficacy (E) is calculated as follows using Abbot's formula: E=(1−α/β)·100 • α corresponds to the fungal infection of the treated plants in % and • β corresponds to the fungal infection of the untreated (control) plants in %
An efficacy of 0 means that the infection level of the treated plants corresponds to that of the untreated control plants; an efficacy of 100 means that the treated plants were not infected.
Leaves of potted vines of the cultivar “Müller-Thurgau” were sprayed to runoff point with an aqueous suspension having the concentration of active compound stated below. To be able to assess the persistence of the substances, the plants were, after the spray coating had dried on, placed in a green house for 3 days. Only then were the leaves inoculated with an aqueous zoospore suspension of Plasmopara viticola. The vines were then initially placed in a water-vapor-saturated chamber at 24° C. for 48 hours and then in a greenhouse at 20-30° C. for 5 days. After this period of time, the plants were again placed in a moist chamber for 16 hours to promote sporangiophore eruption. The extent to which the infection had developed on the undersides of the leaves was then determined visually.

CCCOC(=O)NCCN(C)C [I, propyl (2-dimethylaminoethyl)carbamate]
Efficacy in % of the untreated control (3.75 ppm in the spray liquor): 0 % of the untreated control | Efficacy in % of the untreated control (7.5 ppm in the spray liquor): 0 % of the untreated control | Efficacy in % of the untreated control (15 ppm in the spray liquor): 0 % of the untreated control | Efficacy in % of the untreated control (30 ppm in the spray liquor): 0 % of the untreated control

N#Cc1sc2c(=O)c3ccccc3c(=O)c=2sc1C#N [II, dithianon]
Efficacy in % of the untreated control (30 ppm in the spray liquor): 89 % of the untreated control
